26 compounds from ChEMBL document CHEMBL5131502, “Improving the treatment of Parkinson's disease: Structure-based development of novel 5-HT2A receptor antagonists/inverse agonists” (Eur J Med Chem, 2022) can be followed below.

The source made the active and inactive calls. Bounds are passed on as bounds.

The IC50 is the point on the concentration scale where inhibition reaches its midpoint. By half-life is commonly meant the time needed for the level to fall by half in the phase considered.

Data set [1] addresses T1, 5-hydroxytryptamine receptor 2A (Homo sapiens, UniProt P28223). The data set can be described thus: Antagonist activity at 5-HT2A receptor (unknown origin) expressed in CHO-K1 cells assessed as reduction in intracellular Ca2+ mobilization incubated for 15 mins by FLIPR assay. Format: functional, cell-based.
In data set [2] the target is T1, 5-hydroxytryptamine receptor 2A. Put plainly: Inverse agonist activity at 5-HT2A receptor (unknown origin) expressed in mouse NIH3T3 cells using o-nitrophenyl-D-galacto pyranoside incubated for 120 hrs. The format is functional, cell-based.
Data set [3] has the same target. Put plainly: Potency index, ratio of pimavanserin IC50 to test compound IC50 for antagonist activity at 5-HT2A receptor (unknown origin) expressed in CHO-K1 cells assessed as reduction in intracellular Ca2+ mobilization incubated for 15 mins by FLIPR assay. The format is functional, cell-based.
For data set [4] the target is unchanged. Put plainly: Potency index, ratio of pimavanserin IC50 to test compound IC50 for inverse agonist activity at 5-HT2A receptor (unknown origin) expressed in mouse NIH3T3 cells using o-nitrophenyl-D-galacto pyranoside incubated for 120 hrs. The format is cell-based.
Data set [5] concerns Rattus norvegicus. The data set can be described thus: Antiparkinson's activity in rat assessed as reduction in DOI-induced head-twitching at 1.5 to 6 micromol/kg, IG measured after 1 hr. Format: functional, organism-based. The following applies: dose 1.5-6 µmol/kg.
For data set [6], the system named is Rattus norvegicus. The data set can be described thus: Antiparkinson's activity in rat assessed as reduction of DOI-induced head-twitching at 6 micromol/kg, IG measured after 1 hr. The format is functional, organism-based. The settings on record: dose 6.0 µmol/kg.
A short description of data set [7]: Metabolic stability in human liver microsomes assessed as intrinsic clearance at 100 uM preincubated for 10 mins followed by NADPH addition by LC/MS analysis. Format: ADME, Microsome. The settings on record: read-out: CLH.
A short description of data set [8]: Metabolic stability in Sprague-Dawley rat liver microsomes assessed as half life at 100 uM preincubated for 10 mins followed by NADPH addition by LC/MS analysis. The format is ADME, Microsome. A general note: Microsomes from liver hold many membrane-bound enzymes, among them those of drug oxidation.
Data set [9] can be described thus: Metabolic stability in human liver microsomes assessed as compound remaining at 100 uM […] followed by NADPH addition by LC/MS analysis. The format is ADME, Microsome. The following applies: read-out: Stability.
The nature of data set [10]: Metabolic stability in human liver microsomes assessed as half life at 100 uM preincubated for 10 mins followed by NADPH addition by LC/MS analysis. Format: ADME, Microsome.
Data set [11] in a line: Metabolic stability in Sprague-Dawley rat liver microsomes assessed as intrinsic clearance at 100 uM preincubated for 10 mins followed by NADPH addition by LC/MS analysis. Format: ADME, Microsome. The following applies: read-out: CLH.
A short description of data set [12]: Metabolic stability in Sprague-Dawley rat liver microsomes assessed as compound remaining at 100 uM […] followed by NADPH addition by LC/MS analysis. Format: ADME, Microsome. The following applies: read-out: Stability.
Data set [13] deals with Voltage-gated inwardly rectifying potassium channel KCNH2 (Homo sapiens, UniProt Q12809). Put plainly: Inhibition of hERG potassium channel expressed in CHO cells at -80 mV holding potential by whole cell patch clamp assay. The format is toxicity, cell-based.
Chain of Voltage-gated inwardly rectifying potassium channel KCNH2 (Q12809 whole entry): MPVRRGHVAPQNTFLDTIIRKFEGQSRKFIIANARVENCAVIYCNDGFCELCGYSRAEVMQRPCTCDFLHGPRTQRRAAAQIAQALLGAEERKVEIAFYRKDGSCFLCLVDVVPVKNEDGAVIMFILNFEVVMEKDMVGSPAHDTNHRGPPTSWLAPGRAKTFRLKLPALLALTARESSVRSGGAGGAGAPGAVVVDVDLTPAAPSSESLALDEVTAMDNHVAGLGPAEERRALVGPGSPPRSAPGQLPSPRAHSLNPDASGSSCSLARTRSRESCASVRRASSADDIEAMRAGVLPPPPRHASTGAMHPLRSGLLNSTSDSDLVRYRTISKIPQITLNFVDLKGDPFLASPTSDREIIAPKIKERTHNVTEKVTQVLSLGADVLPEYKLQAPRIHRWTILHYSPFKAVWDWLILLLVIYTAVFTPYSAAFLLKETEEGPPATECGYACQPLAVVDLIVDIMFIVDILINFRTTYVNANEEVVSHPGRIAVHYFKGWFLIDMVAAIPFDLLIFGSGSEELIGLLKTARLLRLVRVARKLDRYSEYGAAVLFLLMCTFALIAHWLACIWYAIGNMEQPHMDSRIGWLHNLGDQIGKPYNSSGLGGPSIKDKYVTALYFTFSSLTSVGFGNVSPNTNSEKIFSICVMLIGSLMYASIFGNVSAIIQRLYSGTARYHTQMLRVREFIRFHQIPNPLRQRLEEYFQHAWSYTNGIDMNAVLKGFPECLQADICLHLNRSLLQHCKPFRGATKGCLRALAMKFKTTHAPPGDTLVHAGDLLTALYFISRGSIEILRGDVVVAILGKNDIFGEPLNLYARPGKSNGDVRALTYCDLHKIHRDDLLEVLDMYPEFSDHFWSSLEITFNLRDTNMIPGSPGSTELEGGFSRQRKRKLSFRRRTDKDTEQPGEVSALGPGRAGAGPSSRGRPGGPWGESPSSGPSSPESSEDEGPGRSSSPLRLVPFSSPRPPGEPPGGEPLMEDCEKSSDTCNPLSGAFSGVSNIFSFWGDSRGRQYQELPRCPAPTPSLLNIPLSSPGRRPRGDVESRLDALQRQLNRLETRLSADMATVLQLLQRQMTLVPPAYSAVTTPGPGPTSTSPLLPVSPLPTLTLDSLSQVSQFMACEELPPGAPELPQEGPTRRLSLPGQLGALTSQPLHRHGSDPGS

T1 sequence (P28223 whole entry): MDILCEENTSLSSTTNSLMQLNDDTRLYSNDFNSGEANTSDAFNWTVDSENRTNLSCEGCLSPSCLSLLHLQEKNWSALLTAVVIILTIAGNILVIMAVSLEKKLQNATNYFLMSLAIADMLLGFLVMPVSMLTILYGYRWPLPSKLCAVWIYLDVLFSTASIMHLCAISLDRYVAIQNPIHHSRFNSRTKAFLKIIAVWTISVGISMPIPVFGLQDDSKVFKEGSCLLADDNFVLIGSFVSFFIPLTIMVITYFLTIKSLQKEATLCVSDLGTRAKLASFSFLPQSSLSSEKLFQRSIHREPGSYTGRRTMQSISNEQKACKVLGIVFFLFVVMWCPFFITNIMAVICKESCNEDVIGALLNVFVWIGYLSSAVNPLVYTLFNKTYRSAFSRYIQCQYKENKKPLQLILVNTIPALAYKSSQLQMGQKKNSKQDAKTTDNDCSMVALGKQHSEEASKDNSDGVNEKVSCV

Consider `CN1CCC(N(Cc2ccc(F)cn2)C(=O)NCc2ccc(OCC(F)(F)F)c(Cl)c2)CC1`, for which the IC50 worked out at 125 nM in data set [1] and 134 nM in [2].
Turning to `CC(C)COc1ccc(CNC(=O)N(Cc2ccc(F)cc2)C2CCCC(N(C)C)C2)cc1` (centres undefined), the IC50 in data set [1] and in [2] was more than 500 nM each time.
Take `CC(C)Cc1ccc(CNC(=O)N(Cc2ccc(F)cn2)C2CCN(C)CC2)cc1`: the IC50 in data set [1] was determined as 26.4 nM; in [2], 8.3 nM.
Take `CC(C)COc1ccc(CNC(=O)N(Cc2ccc(F)cn2)C2CCN(C)CC2)cc1`: the Ratio IC50 in [3] was 3; in data set [4], 2.
For the compound `CC(C)c1cc2cc(CNC(=O)N(Cc3ccc(F)cn3)C3CCN(C)CC3)ccc2o1`, the IC50 in data set [2] was 64.9 nM.
With `Cc1noc(C)c1CN(C(=O)NCc1ccc(OCC(C)C)cc1)C1CCN(C)CC1`, the IC50 in data set [1] and in [2] was more than 500 nM throughout.
In data set [2], `CN1CCC(N(Cc2ccc(F)cn2)C(=O)NCc2ccc3c(c2)CCC(C)(C)O3)CC1` displayed an IC50 of 127 nM.
For the compound `CN1CCC(N(Cc2ccc(F)cn2)C(=O)NCc2ccc(OCC(F)(F)F)c(Br)c2)CC1`, the IC50 is 12 nM in [1] and 8.85 nM in data set [2].
For the compound `CN1CCC(N(Cc2ccc(F)cn2)C(=O)NCc2ccc(OCC(F)(F)F)cc2)CC1`, the outcome in the data set with Rattus norvegicus [5] was Active.
With `CC(C)COc1ccc(CNC(=O)N(Cc2ccc(F)cc2)C2CCN(C)CC2)cc1`, the outcome in the data set on Rattus norvegicus [6] was Active.
Consider `CN1CCC(N(Cc2ccc(F)cn2)C(=O)NCc2ccc(CCC(F)(F)F)cc2)CC1`, for which the IC50 in data set [1] worked out at 18.3 nM; in data set [2] it was 872 nM.
With `CC(C)CCc1ccc(CNC(=O)N(Cc2ccc(F)cn2)C2CCN(C)CC2)cc1`, the IC50 in [1] was found to be 67.2 nM.
In the case of `CC(C)COc1ccc(CNC(=O)N(Cc2ccc(F)cc2)C2CC(N(C)C)C2)cc1` (centres undefined), the IC50 in [1] was found to be 139 nM; in data set [2] it was 159 nM.
`CC(C)COc1ccc(CNC(=O)N(Cc2ccc(F)nn2)C2CCN(C)CC2)cc1`: the IC50 in data set [2] was more than 500 nM.
As for `CN1CCC(N(Cc2ccc(F)cn2)C(=O)NCc2ccc(OCCCF)cc2)CC1`, the CLint scaled at 100 µM in [7] is less than 6.7 mL/min/kg; in data set [11] it was less than 13.4 mL/min/kg. The half-life at 100 µM in data set [8] and in data set [10] was more than 3.1 h throughout. In addition, the remaining at 100 µM in data set [9] turned out to be 87.8%; in [12] it was 80.4%. Besides, the results for the IC50 in [1] and in [2] were 1.93 nM and 3.05 nM, respectively.
For `CC(C)COc1ccc(CNC(=O)N(Cc2cccc3[nH]cnc23)C2CCN(C)CC2)cc1`, the Ratio IC50 in data set [3] was more than 15; in [4], more than 10. The IC50 in data set [1] and in [2] was more than 500 nM throughout.
On to `CC(C)COc1ccc(CNC(=O)N(Cc2ncc(F)cc2F)C2CCN(C)CC2)cc1`, for which the IC50 in [1] stood at 43.2 nM.
Consider `CN1CCC(N(Cc2ccc(F)cn2)C(=O)NCc2ccc3c(c2)CC(C)(C)O3)CC1`, for which the CLint scaled at 100 µM in [7] was 11.9 mL/min/kg; in [11], 37.1 mL/min/kg. In addition, the half-life at 100 µM in data set [8] was determined as 1.06 h; in [10] it was 1.75 h. Besides, the remaining at 100 µM was 66.8% in data set [9] and 55% in data set [12]. The same compound gave an IC50 in [13] of 3610 nM.
In the case of `CC(C)COc1ccc(CNC(=O)N(Cc2ccc(F)cc2)C2CCC(N(C)C)C2)cc1` (centres undefined), the results for the IC50 in data set [1] and in data set [2] were 110 nM and 101 nM, respectively.
`CC(C)COc1ccc(CNC(=O)N(Cc2cn[nH]c2)C2CCN(C)CC2)cc1`: the IC50 in data set [1] and in data set [2] was more than 500 nM each time.
Turning to `CC(C)COc1ccc(CNC(=O)N(Cc2ccc(F)cc2)C2CCN(CC(=O)N(C)C)CC2)cc1`, the results for the IC50 in [1] and in data set [2] were 252 nM and 86.4 nM, respectively.
The like results for `CC(C)COc1ccc(CNC(=O)N(Cc2ccc(F)cc2)C2CCN(CCN(C)C)CC2)cc1` were, in that order, 75.4 nM and more than 500 nM.
For the compound `CC(C)COc1ccc(CNC(=O)N(Cc2cccc3sccc23)C2CCN(C)CC2)cc1`, the Ratio IC50 in data set [3] is more than 15; in [4] it was more than 10. The IC50 in data set [1] and in data set [2] was more than 500 nM throughout.
As for `CN1CCC(N(Cc2ccc(F)cn2)C(=O)NCc2ccc(OCC(F)(F)F)c(C(F)(F)F)c2)CC1`, the IC50 stood at 27.3 nM in [1] and 30.5 nM in [2].
In the case of `CC(C)COc1ccc(CNC(=O)N(Cc2ccc(F)nc2)C2CCN(C)CC2)cc1`, the IC50 in data set [1] and in data set [2] was more than 500 nM throughout.
`CN1CCC(N(Cc2ccc(F)cn2)C(=O)NCc2ccc(OC(F)(F)C(F)(F)F)cc2)CC1`: the half-maximal inhibitory concentration (IC50) in [1] came to 33.4 nM.
